Measurements: PubChem BioAssay (NCI)
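Growth conditions: 96-well plates. Treatment: test compound, 48 hours, 5 concentrations. Analysis: linear interpolation between bracketing concentrations; unreached endpoints set to highest concentration. The concentration for full growth arrest is given as TGI.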

Columns and labels:
Test in all cases: NCI tumour cell line growth inhibition, 48 h
SW-620 colon = test system: SW-620 colon
786-0 renal = test system: 786-0 renal
SF-539 CNS = test system: SF-539 CNS
HOP-92 NSCLC = test system: HOP-92 NSCLC
SF-295 CNS = test system: SF-295 CNS
SK-OV-3 ovarian = test system: SK-OV-3 ovarian
MCF7 breast = test system: MCF7 breast
OVCAR-8 ovarian = test system: OVCAR-8 ovarian
HS 578T breast = test system: HS 578T breast
ACHN renal = test system: ACHN renal
HOP-62 NSCLC = test system: HOP-62 NSCLC
SN12C renal = test system: SN12C renal
MDA-MB-231 breast = test system: MDA-MB-231 breast
KM12 colon = test system: KM12 colon
SK-MEL-2 melanoma = test system: SK-MEL-2 melanoma
OVCAR-3 ovarian = test system: OVCAR-3 ovarian
HCC-2998 colon = test system: HCC-2998 colon
EKVX NSCLC = test system: EKVX NSCLC
UACC-257 melanoma = test system: UACC-257 melanoma
NCI-H522 lung = test system: NCI-H522 lung

Compound	TGI (SW-620 colon)	TGI (786-0 renal)	TGI (SF-539 CNS)	TGI (HOP-92 NSCLC)	TGI (SF-295 CNS)	TGI (SK-OV-3 ovarian)	TGI (MCF7 breast)	TGI (OVCAR-8 ovarian)	TGI (HS 578T breast)	TGI (ACHN renal)	TGI (HOP-62 NSCLC)	TGI (SN12C renal)	TGI (MDA-MB-231 breast)	TGI (KM12 colon)	TGI (SK-MEL-2 melanoma)	TGI (OVCAR-3 ovarian)	TGI (HCC-2998 colon)	TGI (EKVX NSCLC)	TGI (UACC-257 melanoma)	TGI (NCI-H522 lung)
Cn1c(=O)n2c(-c3ccccc3)c(-c3ccccc3)n2c1=O	> 100 µM	> 100 µM	> 100 µM	> 100 µM	> 100 µM	> 100 µM	> 100 µM	> 100 µM	> 100 µM	> 100 µM	> 100 µM	> 100 µM	> 100 µM	> 100 µM	> 100 µM	> 100 µM	> 100 µM	> 100 µM	> 100 µM	–
CC(C)(C)OC(=O)CC(NC(=O)OC(C)(C)C)C(=O)NC(C(=O)O)C(O)c1ccccc1 (centres undefined)	> 100 µM	> 100 µM	> 100 µM	–	> 100 µM	> 100 µM	> 100 µM	> 100 µM	> 100 µM	> 100 µM	> 100 µM	–	> 100 µM	> 100 µM	> 100 µM	> 100 µM	> 100 µM	> 100 µM	> 100 µM	> 100 µM
COC(=O)c1cc(C)ccc1C1CN=NC12Cc1cccc(C)c1C2=O (centres undefined)	> 100 µM	> 100 µM	> 100 µM	> 100 µM	> 100 µM	–	> 100 µM	> 100 µM	> 100 µM	> 100 µM	> 100 µM	> 100 µM	75.5 µM	79.7 µM	–	> 100 µM	> 100 µM	95.6 µM	> 100 µM	89.6 µM
O=[N+]([O-])c1cc(-c2nnc(C34CC5CC(CC(C5)C3)C4)o2)cc([N+](=O)[O-])c1	37.8 µM	> 100 µM	> 100 µM	94.6 µM	> 100 µM	> 100 µM	–	> 100 µM	> 100 µM	> 100 µM	> 100 µM	> 100 µM	> 100 µM	> 100 µM	> 100 µM	> 100 µM	> 100 µM	> 100 µM	> 100 µM	> 100 µM
COC(=O)c1ccc(COC(=O)N2C=CCC2C(=O)O)cc1 (centres undefined)	> 100 µM	> 100 µM	> 100 µM	> 100 µM	> 100 µM	> 100 µM	> 100 µM	> 100 µM	> 100 µM	> 100 µM	> 100 µM	> 100 µM	> 100 µM	> 100 µM	> 100 µM	> 100 µM	> 100 µM	–	> 100 µM	> 100 µM
CC1C2(C)OC(=N)C(C#N)(C(C)O2)C1(C#N)C#N (centres undefined)	43 µM	62 µM	47.1 µM	37.6 µM	> 100 µM	> 100 µM	61.9 µM	> 100 µM	> 100 µM	> 100 µM	–	29.8 µM	41.6 µM	> 100 µM	46.6 µM	51.5 µM	50.5 µM	> 100 µM	46 µM	–
COC(=O)Cc1c(/C=C/C(C)(C)n2cnc(CCN3C(=O)CCC3=O)c2)[nH]c2ccccc12	> 100 µM	> 100 µM	> 100 µM	> 100 µM	> 100 µM	> 100 µM	> 100 µM	> 100 µM	89.3 µM	> 100 µM	–	> 100 µM	> 100 µM	> 100 µM	> 100 µM	> 100 µM	–	> 100 µM	> 100 µM	> 100 µM
NCCCCN(CCCN)Cc1ccc2ccccc2c1	> 100 µM	> 100 µM	> 100 µM	> 100 µM	> 100 µM	> 100 µM	> 100 µM	> 100 µM	42.9 µM	53.8 µM	–	46.3 µM	> 100 µM	> 100 µM	–	–	27.3 µM	> 100 µM	> 100 µM	37.6 µM
CO/N=C(\C(=O)Nc1cncs1)c1csc(N)n1	> 10 µM	> 10 µM	> 10 µM	> 10 µM	> 10 µM	> 10 µM	> 10 µM	> 10 µM	> 10 µM	> 10 µM	> 10 µM	> 10 µM	> 10 µM	> 10 µM	–	> 10 µM	> 10 µM	> 10 µM	> 10 µM	> 10 µM
N#Cc1cc(N(CCCl)CCCl)c([N+](=O)[O-])cc1[N+](=O)[O-]	> 100 µM	> 100 µM	> 100 µM	> 100 µM	> 100 µM	> 100 µM	> 100 µM	> 100 µM	> 100 µM	> 100 µM	> 100 µM	> 100 µM	> 100 µM	> 100 µM	> 100 µM	> 100 µM	–	> 100 µM	> 100 µM	> 100 µM
CCC(CCN)(CCN)[N+](=O)[O-]	> 100 µM	> 100 µM	> 100 µM	> 100 µM	> 100 µM	> 100 µM	> 100 µM	> 100 µM	> 100 µM	–	–	> 100 µM	> 100 µM	> 100 µM	> 100 µM	–	–	> 100 µM	> 100 µM	> 100 µM
CNC(=O)C1CCCN1C(=O)C(Cc1cnc[nH]1)NC(=O)C1CCC(=O)N1 (centres undefined)	> 100 µM	> 100 µM	–	> 100 µM	> 100 µM	> 100 µM	> 100 µM	> 100 µM	> 100 µM	> 100 µM	> 100 µM	> 100 µM	> 100 µM	> 100 µM	–	> 100 µM	> 100 µM	> 100 µM	–	> 100 µM
NC(=O)CCC(CCC(N)=O)(CCC(N)=O)[N+](=O)[O-]	> 100 µM	> 100 µM	> 100 µM	> 100 µM	> 100 µM	> 100 µM	> 100 µM	> 100 µM	> 100 µM	> 100 µM	–	> 100 µM	> 100 µM	> 100 µM	> 100 µM	–	–	> 100 µM	> 100 µM	> 100 µM
CC1=CC(=O)[C@@H](O)[C@]2(C)[C@H]3[C@@]4(O)OC[C@@]35[C@@H](C[C@@H]12)OC(=O)C(OC(=O)CC1=CCCC1)[C@H]5[C@@H](C)[C@H]4O (some centres undefined)	> 29.5 µM	0.311 µM	0.0676 µM	1.15 µM	0.448 µM	5.04 µM	0.656 µM	0.139 µM	0.136 µM	0.35 µM	0.108 µM	0.435 µM	0.372 µM	0.166 µM	0.237 µM	–	0.232 µM	1.45 µM	0.217 µM	0.0733 µM
Nc1ncnc2c1ncn2C1C=CC(COS(N)(=O)=O)C1 (centres undefined)	> 100 µM	> 100 µM	7.12 µM	87.3 µM	> 100 µM	> 100 µM	> 100 µM	> 100 µM	> 100 µM	> 100 µM	> 100 µM	> 100 µM	> 100 µM	> 100 µM	> 100 µM	> 100 µM	> 100 µM	> 100 µM	> 100 µM	–
Clc1ccc(C2=C(c3ccccc3)C(c3ccc(Cl)cc3)N3C(=N[C@H]4CCCC[C@@H]43)N2)cc1 (some centres undefined)	20.6 µM	27.8 µM	29.7 µM	21.4 µM	23.8 µM	30.8 µM	21.2 µM	29.5 µM	49.5 µM	23.2 µM	–	–	29.8 µM	23.5 µM	29.9 µM	26.7 µM	10.4 µM	24.8 µM	32.2 µM	–
CS/C(=N\S(=O)(=O)c1cc(C)c(Cl)cc1Cl)NNc1cnc2ccccc2n1	> 100 µM	> 100 µM	> 100 µM	> 100 µM	> 100 µM	> 100 µM	> 100 µM	> 100 µM	> 100 µM	> 100 µM	> 100 µM	> 100 µM	> 100 µM	> 100 µM	–	> 100 µM	> 100 µM	> 100 µM	> 100 µM	> 100 µM
CCC12CC(c3ccccc3)C(C(=O)N1)C(=O)N2 (centres undefined)	> 100 µM	> 100 µM	> 100 µM	> 100 µM	> 100 µM	> 100 µM	> 100 µM	> 100 µM	> 100 µM	> 100 µM	> 100 µM	> 100 µM	> 100 µM	> 100 µM	> 100 µM	> 100 µM	–	> 100 µM	> 100 µM	> 100 µM
CC(C)n1c(=O)[nH]n(-c2ccccc2)c1=O	> 100 µM	> 100 µM	> 100 µM	> 100 µM	> 100 µM	> 100 µM	> 100 µM	> 100 µM	> 100 µM	> 100 µM	> 100 µM	> 100 µM	> 100 µM	> 100 µM	> 100 µM	> 100 µM	–	> 100 µM	> 100 µM	> 100 µM
CCOC(=O)c1c(-c2ccccc2)nc2c(OC)nccn12	> 100 µM	> 100 µM	> 100 µM	–	> 100 µM	> 100 µM	> 100 µM	> 100 µM	> 100 µM	–	> 100 µM	> 100 µM	> 100 µM	> 100 µM	> 100 µM	> 100 µM	> 100 µM	> 100 µM	> 100 µM	> 100 µM
